Reference: US7273856B2, “Linear basic compounds having NK-2 antagonist activity and formulations thereof” (Menarini Ricerche S.P.A., priority 2001, dated 2007)

Target: T1, human NK-2 receptor (Homo sapiens, UniProt P21452)
T1 construct: expressed in transfected cells; host or cells: CHO (Chinese hamster ovary) cells, membranes
T1 sequence (P21452 1-398): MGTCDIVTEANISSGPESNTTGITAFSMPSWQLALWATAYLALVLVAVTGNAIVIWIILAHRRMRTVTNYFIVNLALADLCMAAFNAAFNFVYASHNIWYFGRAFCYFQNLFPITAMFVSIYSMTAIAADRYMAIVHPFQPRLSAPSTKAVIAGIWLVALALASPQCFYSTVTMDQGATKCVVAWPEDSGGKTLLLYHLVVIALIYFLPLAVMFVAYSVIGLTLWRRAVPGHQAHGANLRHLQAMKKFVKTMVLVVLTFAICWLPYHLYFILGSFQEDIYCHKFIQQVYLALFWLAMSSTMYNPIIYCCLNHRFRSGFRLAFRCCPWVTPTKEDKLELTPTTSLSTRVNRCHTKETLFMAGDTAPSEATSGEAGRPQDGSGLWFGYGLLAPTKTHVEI
Assay: binding test, affinity for the human NK-2 receptor, competition with [125I]NKA on transfected CHO cell membranes
Details: CHO cell membranes transfected with NK-2 receptor of human ileum; [125I]NKA 100 pM; 30 min, 20° C.
Protocol: The evaluation of the antagonist activity on NK-2 receptors has been assessed by binding and functional tests according to that already described in literature in relation to NK-2 antagonists.
The test substances have been tested within a concentration range from 0.01 nM to 10 nM. At the end of the incubation time (30 min, 20° C.) the samples have been filtered and radioactivity has been determined using a gamma-counter.

Ki [nM]	pKi	Molecule
1.26		O=C(NC1(C(=O)N[C@H](Cc2ccccc2)C(=O)NCC2CCN(CC3CCOCC3)CC2)CCCC1)c1ccc2ccccc2c1 [Example 151, Naphthalene-2-carboxylic acid [1-(2-phenyl-1R-{[1-(tetrahydro-pyran-4-ylmethyl)-piperidin-4-ylmethyl]-carbamoyl}-ethylcarbamoyl)-cyclopentyl]-amide]
0.126		O=C(NC1(C(=O)N[C@H](Cc2ccccc2)C(=O)NCC2CN(CC3CCOCC3)C2)CCCC1)c1cc2ccccc2s1 [Example 152, Benzo[b]thiophene-2-carboxylic acid [1-(2-phenyl-1(R)-{[1-(tetrahydro-pyran-4-ylmethyl)-azetidin-3-ylmethyl]-carbamoyl}-ethylcarbamoyl)-cyclopentyl]-amide]
	9.3	Benzo[b]thiophene-2-carboxylic acid [1-(2-phenyl-1(R)-{[1-(tetrahydro-pyran-4-yl)-piperidin-4-ylmethyl]-carbamoyl}-ethylcarbamoyl)-cyclopentyl]-amide [Example 73]
	9.6	N^γ{N^α[N^α(benzo[b]thiophen-2-ylcarbonyl)-1-aminocyclopentan-1-carboxy]-D-phenylalanyl}-(1R,3S)-3-aminocyclopentane-1-carboxylic-acid-N-((1S,2S)2-dimethylaminocyclohexyl) amide hydrochloride salt [Example 8]
